This note sets out measurements from patent US20070185138A1, “Imidazolopyrimidines used as fungicidal active ingredients” (priority 2004, published 2007).

Structures are written as SMILES. Bounds are passed on as bounds.

The nature of data set [1]: logP determination by HPLC (EEC Directive 79/831 Annex V. A8). It counts as physicochemical. To be noted: HPLC gradient method, acetonitrile/0.1% aqueous phosphoric acid. How it is done:
The logP values were determined in accordance with EEC Directive 79/831 Annex V. A8 by HPLC (gradient method, acetonitrile/0.1% aqueous phosphoric acid).

In data set [2] the test system is Botrytis cinerea. Kind of data set: Botrytis test (cucumber)/protective. In kind it is in vivo. To be noted: young cucumber plants, protective spray, application rate 750 g/ha, evaluation 5-6 days after inoculation. How it is done: • Botrytis test (cucumber)/protective • Solvent: 49 parts by weight of N,N-dimethylformamide • Emulsifier: 1 part by weight of alkylaryl polyglycol ether
To produce a suitable preparation of active compound, 1 part by weight of active compound is mixed with the stated amounts of solvent and emulsifier, and the concentrate is diluted with water to the desired concentration.
To test for protective activity, young cucumber plants are sprayed with the preparation of active compound at the stated application rate. One day aft er the treatment, the plants are inoculated with a spore suspension of Botrytis cinerea and then remain at 100% relative hunmdity and 20° C. for 48 h. The plants then remain at 96% relative atmospheric-humidity and a temperature of 10° C.
Evaluation is carried out 5-6 days after the inoculation. 0% means an efficacy which corresponds to that of the control, whereas an efficacy of 100% means that no infection is observed.

Broadly, the logP is a log measure of how a compound divides between an organic and an aqueous phase. `C[Si](C)(C)CNc1nc2nccn2c(Cl)c1-c1c(F)cc(F)cc1F` [Example 1, 5-chloro-6-(2,4,6-trifluorophenyl-)-7-trimethylsilylmethylaminoimidazo[1,2-a]pyrimidine] displayed a logP in data set [1] of 2.09.
In data set [1], `CC(Nc1nc2nccn2c(Cl)c1-c1c(F)cc(F)cc1F)[Si](C)(C)C` (stereo not drawn) [Example 2, 5-chloro-6-(2,4,6-trifloropheny)-7-(1-trimethylsilylethylamino)imidazo[1,2-a]pyrimidine] registered a log partition coefficient (logP) of 2.18. In addition, the efficacy in data set [2] was above 80%.
